Measured values reported in patent publication US20090136482A1, “DRUG TARGET PROTEIN AND TARGET GENE, AND SCREENING METHOD” (REVERSE PROTEOMICS RESEARCH INSTITUTE CO., LTD., priority 2005, published 2009).

How the values were obtained:
FLJ12514-derived protein = FLJ12514-derived protein (Homo sapiens, UniProt Q9H9A5); test: Biacore S51 surface plasmon resonance interaction analysis with FLJ12514-derived protein; type: binding; details: for interaction with the protein (dose-dependent binding amount, saturation at high doses): FLJ12514-derived protein, Biacore S51
Chain of FLJ12514-derived protein (Q9H9A5 whole entry): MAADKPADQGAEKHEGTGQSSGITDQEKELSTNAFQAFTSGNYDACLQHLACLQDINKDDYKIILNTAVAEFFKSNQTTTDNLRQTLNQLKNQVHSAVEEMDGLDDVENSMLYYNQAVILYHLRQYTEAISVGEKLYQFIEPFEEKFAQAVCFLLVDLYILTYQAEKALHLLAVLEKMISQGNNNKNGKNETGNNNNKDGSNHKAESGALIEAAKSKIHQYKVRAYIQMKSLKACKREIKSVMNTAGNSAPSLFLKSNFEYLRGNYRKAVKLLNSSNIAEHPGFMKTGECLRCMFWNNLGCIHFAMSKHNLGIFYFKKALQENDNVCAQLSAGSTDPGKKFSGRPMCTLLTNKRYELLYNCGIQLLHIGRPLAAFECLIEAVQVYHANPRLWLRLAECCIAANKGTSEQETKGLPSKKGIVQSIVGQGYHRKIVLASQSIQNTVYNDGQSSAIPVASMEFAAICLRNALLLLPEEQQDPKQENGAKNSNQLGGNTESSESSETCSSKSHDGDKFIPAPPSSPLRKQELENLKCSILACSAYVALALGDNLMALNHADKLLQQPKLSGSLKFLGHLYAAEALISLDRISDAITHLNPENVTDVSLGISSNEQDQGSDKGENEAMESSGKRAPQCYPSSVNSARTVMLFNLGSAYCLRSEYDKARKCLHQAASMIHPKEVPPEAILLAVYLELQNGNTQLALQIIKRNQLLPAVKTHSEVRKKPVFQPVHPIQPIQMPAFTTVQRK
Description: (§1) The obtained plasmids were subjected to phenol/chloroform treatment and the inactivation treatment of RNase according to the PROTEIOS (TOYOBO) protocol to give purified expression plasmids.
(§2) The surface of a CM5 sensor chip for S51 (commercially available from Biacore) was converted to NTA using 1 M EDC, 1.33 M NHS, and 16 mg/ml AB-NTA (pH 9.2) to give an NTA sensor chip for S51. […] The immobilization was performed by sequentially injecting 0.5 M NiCl2, 0.4 M EDC, […], a ligand (protein) solution, and 1 M ethanolamine (pH 8.5) into the passage system of Biacore S51. […] For the correction (solvent correction) of the effect of DMSO contained in the compound solutions and the running buffer, the same solutions as the running buffer containing 3.8 to 5.1% DMSO (8 points) were prepared to perform correction based on the measurement results of these solutions.

FLJ14583-derived protein = molecular target: T1, FLJ14583-derived protein (Homo sapiens, UniProt Q12816); test: Biacore S51 surface plasmon resonance interaction analysis with FLJ14583-derived protein; type: binding
T1 sequence (Q12816 1-1431): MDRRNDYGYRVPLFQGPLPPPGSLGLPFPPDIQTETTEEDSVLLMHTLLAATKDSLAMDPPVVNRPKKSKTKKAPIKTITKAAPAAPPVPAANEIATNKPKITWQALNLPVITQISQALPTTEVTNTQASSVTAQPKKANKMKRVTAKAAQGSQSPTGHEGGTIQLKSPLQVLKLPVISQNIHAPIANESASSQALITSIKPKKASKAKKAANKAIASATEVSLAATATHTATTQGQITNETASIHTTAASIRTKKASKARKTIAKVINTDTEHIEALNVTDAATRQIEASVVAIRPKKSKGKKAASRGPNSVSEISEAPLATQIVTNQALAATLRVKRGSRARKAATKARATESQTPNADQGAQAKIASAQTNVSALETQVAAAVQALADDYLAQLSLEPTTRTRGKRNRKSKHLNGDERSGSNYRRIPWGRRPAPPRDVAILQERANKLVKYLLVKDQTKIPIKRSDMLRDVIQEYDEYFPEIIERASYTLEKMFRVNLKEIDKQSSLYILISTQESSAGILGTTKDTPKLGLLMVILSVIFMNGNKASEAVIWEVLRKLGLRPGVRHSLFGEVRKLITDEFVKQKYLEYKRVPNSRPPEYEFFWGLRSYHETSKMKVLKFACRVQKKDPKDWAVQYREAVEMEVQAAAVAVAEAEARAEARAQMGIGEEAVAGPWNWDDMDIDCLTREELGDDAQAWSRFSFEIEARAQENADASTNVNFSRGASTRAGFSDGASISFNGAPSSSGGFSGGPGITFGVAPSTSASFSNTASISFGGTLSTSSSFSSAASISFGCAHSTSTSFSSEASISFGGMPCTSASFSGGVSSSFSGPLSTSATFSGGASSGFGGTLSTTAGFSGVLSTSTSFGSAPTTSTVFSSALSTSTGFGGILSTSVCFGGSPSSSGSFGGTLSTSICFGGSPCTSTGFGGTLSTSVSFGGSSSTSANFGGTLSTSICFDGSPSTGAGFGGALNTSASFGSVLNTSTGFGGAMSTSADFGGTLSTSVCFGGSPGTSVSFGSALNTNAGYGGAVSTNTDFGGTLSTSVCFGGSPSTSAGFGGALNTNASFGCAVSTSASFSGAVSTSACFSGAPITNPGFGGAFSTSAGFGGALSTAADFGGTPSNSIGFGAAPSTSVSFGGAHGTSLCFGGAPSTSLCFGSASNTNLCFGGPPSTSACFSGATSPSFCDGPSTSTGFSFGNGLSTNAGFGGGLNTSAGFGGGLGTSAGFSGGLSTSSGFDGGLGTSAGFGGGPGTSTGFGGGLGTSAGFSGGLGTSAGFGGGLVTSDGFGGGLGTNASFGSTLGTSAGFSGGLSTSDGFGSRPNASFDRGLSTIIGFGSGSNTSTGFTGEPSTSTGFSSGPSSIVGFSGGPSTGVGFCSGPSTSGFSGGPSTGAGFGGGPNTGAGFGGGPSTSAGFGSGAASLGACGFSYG
Description: as §1, §2

FLJ31146-derived protein = molecular target: T2, FLJ31146-derived protein (Homo sapiens, UniProt Q9BSE4); test: Biacore S51 surface plasmon resonance interaction analysis with FLJ31146-derived protein; type: binding
T2 construct: fused on or other part: N-terminal histidine tag and FLAG tag, with Gateway linker residues
T2 sequence (Q9BSE4 1-406): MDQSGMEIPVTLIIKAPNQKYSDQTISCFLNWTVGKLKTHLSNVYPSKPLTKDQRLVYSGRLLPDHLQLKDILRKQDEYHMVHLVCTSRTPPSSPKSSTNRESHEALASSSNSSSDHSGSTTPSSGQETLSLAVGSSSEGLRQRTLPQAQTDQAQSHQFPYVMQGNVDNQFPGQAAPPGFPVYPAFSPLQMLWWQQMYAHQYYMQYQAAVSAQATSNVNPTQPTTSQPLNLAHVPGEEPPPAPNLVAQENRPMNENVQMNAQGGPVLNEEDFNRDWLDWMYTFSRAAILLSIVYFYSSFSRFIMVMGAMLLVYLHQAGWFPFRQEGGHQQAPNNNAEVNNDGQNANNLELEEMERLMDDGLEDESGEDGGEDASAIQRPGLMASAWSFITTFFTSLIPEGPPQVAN
Description: as §1, §2

FLJ12502-derived protein = molecular target: T3, FLJ12502-derived protein (Homo sapiens, UniProt Q7Z3D6); test: Biacore S51 surface plasmon resonance interaction analysis with FLJ12502-derived protein
T3 sequence (Q7Z3D6 1-616 isoform Q7Z3D6-1): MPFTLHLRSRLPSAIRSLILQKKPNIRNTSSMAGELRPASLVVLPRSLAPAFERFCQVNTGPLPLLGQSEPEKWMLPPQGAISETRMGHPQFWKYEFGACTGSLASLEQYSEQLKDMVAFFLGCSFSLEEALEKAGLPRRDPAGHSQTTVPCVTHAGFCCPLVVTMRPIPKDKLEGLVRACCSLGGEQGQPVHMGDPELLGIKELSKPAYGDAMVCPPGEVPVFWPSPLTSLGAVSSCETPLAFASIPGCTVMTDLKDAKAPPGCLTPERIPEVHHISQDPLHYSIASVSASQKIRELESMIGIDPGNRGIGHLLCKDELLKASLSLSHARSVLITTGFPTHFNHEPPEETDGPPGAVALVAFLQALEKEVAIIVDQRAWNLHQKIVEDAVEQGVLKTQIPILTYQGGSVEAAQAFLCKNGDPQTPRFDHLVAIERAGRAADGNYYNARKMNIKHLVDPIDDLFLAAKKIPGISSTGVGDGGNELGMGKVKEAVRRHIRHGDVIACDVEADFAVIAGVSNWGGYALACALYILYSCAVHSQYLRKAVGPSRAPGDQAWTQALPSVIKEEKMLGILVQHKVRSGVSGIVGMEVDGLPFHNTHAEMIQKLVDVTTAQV

FLJ10368-derived protein = molecular target: T4, FLJ10368-derived protein (Homo sapiens, UniProt Q9NUX5); test: Biacore S51 surface plasmon resonance interaction analysis with FLJ10368-derived protein; type: binding
T4 construct: fused on or other part: N-terminal histidine tag and FLAG tag, with Gateway linker residues
T4 sequence (Q9NUX5 1-634): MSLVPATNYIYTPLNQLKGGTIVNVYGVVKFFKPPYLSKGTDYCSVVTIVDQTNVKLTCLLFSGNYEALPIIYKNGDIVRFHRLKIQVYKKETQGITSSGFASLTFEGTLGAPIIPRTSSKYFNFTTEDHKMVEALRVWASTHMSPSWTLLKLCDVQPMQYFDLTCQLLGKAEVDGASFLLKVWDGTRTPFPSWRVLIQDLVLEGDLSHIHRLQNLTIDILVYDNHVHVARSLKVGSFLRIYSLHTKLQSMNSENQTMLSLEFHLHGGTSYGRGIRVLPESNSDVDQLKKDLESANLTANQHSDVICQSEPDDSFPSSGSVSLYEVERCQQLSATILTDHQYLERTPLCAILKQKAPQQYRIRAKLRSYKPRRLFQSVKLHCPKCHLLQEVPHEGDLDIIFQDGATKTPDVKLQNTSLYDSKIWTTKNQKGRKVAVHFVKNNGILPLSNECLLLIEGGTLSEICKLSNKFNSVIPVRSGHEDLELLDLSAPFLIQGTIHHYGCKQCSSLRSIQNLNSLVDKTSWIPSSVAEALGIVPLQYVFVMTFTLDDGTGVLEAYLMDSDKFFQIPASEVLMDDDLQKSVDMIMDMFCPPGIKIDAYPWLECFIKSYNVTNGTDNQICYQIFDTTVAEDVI
Description: as §1, §2

FLJ12389-derived protein = molecular target: T5, FLJ12389-derived protein (Homo sapiens, UniProt Q86V21); test: Biacore S51 surface plasmon resonance interaction analysis with FLJ12389-derived protein; type: binding
T5 sequence (Q86V21 1-672): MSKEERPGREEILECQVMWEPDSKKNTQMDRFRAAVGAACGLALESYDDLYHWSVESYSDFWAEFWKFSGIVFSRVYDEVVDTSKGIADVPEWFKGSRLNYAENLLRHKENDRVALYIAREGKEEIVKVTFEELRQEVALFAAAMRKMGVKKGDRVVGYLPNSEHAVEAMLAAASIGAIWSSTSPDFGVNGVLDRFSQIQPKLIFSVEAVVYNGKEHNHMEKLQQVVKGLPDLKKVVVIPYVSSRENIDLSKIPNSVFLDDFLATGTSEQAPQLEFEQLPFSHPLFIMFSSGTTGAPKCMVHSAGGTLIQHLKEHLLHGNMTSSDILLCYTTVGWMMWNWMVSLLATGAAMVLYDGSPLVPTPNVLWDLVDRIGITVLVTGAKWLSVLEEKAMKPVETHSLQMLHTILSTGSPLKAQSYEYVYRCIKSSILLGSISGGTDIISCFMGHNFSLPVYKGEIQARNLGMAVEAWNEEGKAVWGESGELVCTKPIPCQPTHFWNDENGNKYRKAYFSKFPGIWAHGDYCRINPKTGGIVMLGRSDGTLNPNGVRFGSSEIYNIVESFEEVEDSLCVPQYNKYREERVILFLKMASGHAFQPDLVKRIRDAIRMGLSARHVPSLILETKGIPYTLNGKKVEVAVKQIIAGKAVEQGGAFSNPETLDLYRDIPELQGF
Description: as §1, §2

SMILES: CC[C@@]1(O)C[C@H](O[C@H]2C[C@H](N(C)C)[C@H](O[C@H]3C[C@H](O)[C@H](O[C@H]4CCC(=O)[C@H](C)O4)[C@H](C)O3)[C@H](C)O2)c2c(cc3c(c2O)C(=O)c2c(O)cccc2C3=O)[C@H]1C(=O)OC [aclarubicin]
- Kd (FLJ12514-derived protein): 6.11 µM
- interaction with the protein (dose-dependent binding amount, saturation at high doses) (FLJ12514-derived protein): specifically interact

SMILES: CC1=C(C(=O)O)N2C(=O)[C@@H](NC(=O)[C@H](N)c3ccccc3)[C@H]2SC1 [cephalexin]
- interaction with the protein (dose-dependent binding amount, saturation at high doses) (FLJ14583-derived protein): specifically interact
- interaction with the protein (dose-dependent binding amount, saturation at high doses) (FLJ31146-derived protein): specifically interact
- Kd (FLJ12502-derived protein): 5.98 µM
- interaction with the protein (dose-dependent binding amount, saturation at high doses) (FLJ12502-derived protein; FLJ12502-derived protein, Biacore S51): specifically interact

SMILES: COC(=O)[C@H]1[C@H]2C[C@@H]3c4[nH]c5cc(OC)ccc5c4CCN3C[C@H]2C[C@@H](OC(=O)c2cc(OC)c(OC)c(OC)c2)[C@@H]1OC [reserpine]
- interaction with the protein (dose-dependent binding amount, saturation at high doses) (FLJ10368-derived protein): specifically interact

SMILES: c1ccc2[nH]c(-c3cscn3)nc2c1 [thiabendazole]
- interaction with the protein (dose-dependent binding amount, saturation at high doses) (FLJ10368-derived protein): specifically interact
- interaction with the protein (dose-dependent binding amount, saturation at high doses) (FLJ12389-derived protein): specifically interact
- interaction with the protein (dose-dependent binding amount, saturation at high doses) (FLJ12514-derived protein): specifically interact
